Consider three molecules from patent publication US11433136B2, “Polyacetal polymers, conjugates, particles and uses thereof” (THE GENERAL HOSPITAL CORPORATION, priority 2015, dated 2022).

Data set [1] deals with human malignant glioma cells. The following applies: cited from earlier work.
The test system of another data set is leiomyoma cell. The note with it: cultured cells; cited from earlier work.
Data set [2] relates to fibroblast growth and collagen synthesis. The note with it: cited from earlier work.
For data set [3] the following is noted: mouse, in vivo, po, 10 mg/kg. The procedure:
The purpose of this single-dose PK study was to evaluate the in vivo drug release of Can-DPC in 4T1 tumor bearing animals by collecting whole blood, tumor, and liver tissue for bioanalytical quantification of polymer-conjugated and released drug (i.e., candesartan). In this example, the Can-DPC formulation (10 mg/kg) was administrated intravenously as a single bolus and compared directly with the PK profile of candesartan cilexetil administrated by oral gavage (10 mg/kg) using 0.5% HPMC as a vehicle (Table 5).
The mammary fat pads of Balb/C female mice (6-8 weeks old; Taconic) were implanted with syngeneic 4T1 mouse tumor cells (150,000 cells/per animal) obtained from ATCC. Tumors were allowed to develop for 10 days, reaching an average size of 150-450 mm^3 (caliper measurements), before the mice were randomized into three dose groups (Table 5). Following a single administration of the test agents (10 mg/kg) or vehicle alone, whole blood, tumor, and liver tissues were collected at 2, 24, 48 and 144 hrs post dose. In addition, intermediate submandibular bleeds (˜100 μL whole blood) were collected at 5 min, 30 min, 4 hrs, and 6 hrs (n=3 animals per timepoint) following the i.v. and p.o. dosing. […]

The next data set deals with CXCR4 (Homo sapiens, UniProt P61073). The note with it: cited from earlier work.
Sequence of CXCR4 (P61073 whole entry, species assumed): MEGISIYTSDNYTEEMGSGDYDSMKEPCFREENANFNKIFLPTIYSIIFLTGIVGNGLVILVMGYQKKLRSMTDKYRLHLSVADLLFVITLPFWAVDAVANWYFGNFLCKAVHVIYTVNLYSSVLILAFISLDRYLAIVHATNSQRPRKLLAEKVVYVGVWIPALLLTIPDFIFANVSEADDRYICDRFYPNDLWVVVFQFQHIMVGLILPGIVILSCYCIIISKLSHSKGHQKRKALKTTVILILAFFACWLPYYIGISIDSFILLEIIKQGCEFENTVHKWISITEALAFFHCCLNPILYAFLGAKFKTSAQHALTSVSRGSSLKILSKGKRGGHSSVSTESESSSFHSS

`Cc1ccc(=O)n(-c2ccccc2)c1` [PFD, 5-methyl-1-phenyl-2(1H)-pyridone]: in data set [1], the TGF-b expression result is on record as “reduce TGF-b expression in human malignant glioma cells”. Moreover, in the data set with leiomyoma cell, the “leiomyoma cell proliferation and collagen production” value was “reduce leiomyoma cell proliferation and collagen production in cultured cells”. For the same molecule, the “fibroblast growth and collagen synthesis” value in data set [2] is “inhibitory effect on fibroblast growth and collagen synthesis”.

As to `CCOc1nc2cccc(C(=O)OC(C)OC(=O)OC3CCCCC3)c2n1Cc1ccc(-c2ccccc2-c2nn[nH]n2)cc1` (centres unmarked) [candesartan cilexetil], the candesartan in liver entry in data set [3] is “non-detectable”.

As for `c1cc(CN2CCCNCCNCCCNCC2)ccc1CN1CCCNCCNCCCNCC1` [AMD3100, 1,1′-[1,4-phenylene-bis(methylene)]-bis-1,4,8,11-tetraazacyclotetradecane], the fibrosis result on CXCR4 is listed as “can reduce fibrosis”.
